Holding throughout (type): biochemical
Test [1] deals with T1, AfM (Acidithiobacillus ferrooxidans, UniProt B7J5E3).
T1 construct: gene cbbL2; His6-ubiquitin fusion cleaved to native N terminus, E. coli BL21 (DE3), hexamer (L6), 313 kDa measured
In words: spectrophotometric coupled rubisco assay. To be noted: pH 8.0, 25 °C, 1 mM RuBP, 5 mM NaHCO3, 5 mM MgCl2; substrate of ECM, also inhibits the apoenzyme (loose ER complex).

Test [2] has as its target T1, AfM. The test is described as follows: spectrophotometric coupled rubisco assay of ECMC complex. Particulars: activated enzyme (ECM) preincubated with fourfold excess of carboxypentitol bisphosphate (1:1 CABP and carboxyribitol isomer); pH 8.0, 25 °C, 20 mM NaHCO3, Mg2+; active site but 5 mM NaHCO3.
In another test the target is T2, AfLS (Acidithiobacillus ferrooxidans, UniProt B7JA24).
T2 construct: gene cbbL2; cbbLS in pET30b, E. coli BL21, ion exchange and gel filtration, L8S8 hexadecamer, predicted 530 kDa; with Ribulose bisphosphate carboxylase small subunit
T2 sequence (B7JA24 whole entry): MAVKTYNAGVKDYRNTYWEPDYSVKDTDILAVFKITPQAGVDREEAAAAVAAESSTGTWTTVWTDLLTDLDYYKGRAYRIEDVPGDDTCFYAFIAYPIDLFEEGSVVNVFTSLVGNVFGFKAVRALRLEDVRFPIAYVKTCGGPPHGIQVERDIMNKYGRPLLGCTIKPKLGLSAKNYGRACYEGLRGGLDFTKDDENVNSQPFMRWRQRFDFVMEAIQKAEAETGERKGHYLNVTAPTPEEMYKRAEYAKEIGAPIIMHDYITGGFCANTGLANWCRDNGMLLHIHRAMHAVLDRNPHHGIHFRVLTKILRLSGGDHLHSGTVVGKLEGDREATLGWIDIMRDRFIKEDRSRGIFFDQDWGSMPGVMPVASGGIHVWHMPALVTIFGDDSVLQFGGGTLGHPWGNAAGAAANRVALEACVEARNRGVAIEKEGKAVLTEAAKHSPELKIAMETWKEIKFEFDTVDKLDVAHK
T2 sequence (B7JA25 1-118 partner): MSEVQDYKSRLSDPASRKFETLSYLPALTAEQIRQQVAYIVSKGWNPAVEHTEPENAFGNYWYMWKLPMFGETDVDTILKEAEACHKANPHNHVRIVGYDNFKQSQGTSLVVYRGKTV
The description is as above. Particulars: activated enzyme (ECM) preincubated with fourfold excess of carboxypentitol bisphosphate (1:1 CABP and carboxyribitol isomer); pH 8.0, 25 °C, 20 mM NaHCO3, Mg2+; active site.

Test [3] concerns the target T3, Q2O2 (Acidithiobacillus ferrooxidans, UniProt B7J5E4, W83F).
T3 construct: gene cbbQ-2; co-expressed His6-ubiquitin fusions cleaved, E. coli, CbbQ6CbbO1 hetero-oligomer, 285 kDa measured
The test is described as follows: coupled ATPase assay (NADH oxidation). Particulars: 25 °C; basal, no rubisco.

The next test deals with T4, AfQ2 (Acidithiobacillus ferrooxidans, UniProt B7J5E4).
T4 construct: gene cbbQ-2; His6-ubiquitin fusion cleaved to native N terminus, E. coli, homohexamer, 173 kDa measured
T4 sequence (B7J5E4 entry or part of it): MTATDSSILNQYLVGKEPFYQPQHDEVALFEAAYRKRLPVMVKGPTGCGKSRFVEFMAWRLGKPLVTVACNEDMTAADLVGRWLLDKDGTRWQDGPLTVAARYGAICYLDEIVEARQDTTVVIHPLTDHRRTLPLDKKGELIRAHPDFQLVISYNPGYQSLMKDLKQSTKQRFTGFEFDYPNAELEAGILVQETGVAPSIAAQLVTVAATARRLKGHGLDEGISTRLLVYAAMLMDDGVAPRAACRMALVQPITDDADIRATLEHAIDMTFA
The test is described as follows: coupled ATPase assay (NADH oxidation). Particulars: 25 °C; basal, no rubisco.

Test [4] addresses T5, Q2O2 (Acidithiobacillus ferrooxidans, UniProt B7J5E4, W83L).
T5 construct: gene cbbQ-2; co-expressed His6-ubiquitin fusions cleaved, E. coli, CbbQ6CbbO1 hetero-oligomer, 285 kDa measured
In words: coupled ATPase assay (NADH oxidation). Particulars: 25 °C; basal, no rubisco.

T1 sequence (B7J5E3 entry or part of it): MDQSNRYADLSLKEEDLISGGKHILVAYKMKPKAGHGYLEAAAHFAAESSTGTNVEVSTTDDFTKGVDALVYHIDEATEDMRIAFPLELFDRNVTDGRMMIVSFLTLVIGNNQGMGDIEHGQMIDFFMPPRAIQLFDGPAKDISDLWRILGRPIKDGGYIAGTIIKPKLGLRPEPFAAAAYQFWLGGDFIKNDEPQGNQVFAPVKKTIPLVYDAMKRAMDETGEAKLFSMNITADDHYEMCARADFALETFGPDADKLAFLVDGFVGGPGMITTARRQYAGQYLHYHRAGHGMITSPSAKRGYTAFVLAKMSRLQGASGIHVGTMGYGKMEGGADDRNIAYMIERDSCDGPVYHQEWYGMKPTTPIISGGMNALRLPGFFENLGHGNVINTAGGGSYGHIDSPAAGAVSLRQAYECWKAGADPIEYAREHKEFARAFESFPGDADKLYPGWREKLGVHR
T5 sequence (B7J5E4 entry or part of it W83L): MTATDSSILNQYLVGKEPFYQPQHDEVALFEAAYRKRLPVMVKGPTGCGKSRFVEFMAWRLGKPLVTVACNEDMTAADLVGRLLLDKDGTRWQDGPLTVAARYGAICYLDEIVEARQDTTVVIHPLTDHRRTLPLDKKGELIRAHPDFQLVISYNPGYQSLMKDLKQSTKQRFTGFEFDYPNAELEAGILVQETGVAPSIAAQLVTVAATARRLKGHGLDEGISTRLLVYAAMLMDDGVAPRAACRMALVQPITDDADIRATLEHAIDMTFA
T5 sequence (B7J5E5 entry or part of it, stated change not applied, further chain): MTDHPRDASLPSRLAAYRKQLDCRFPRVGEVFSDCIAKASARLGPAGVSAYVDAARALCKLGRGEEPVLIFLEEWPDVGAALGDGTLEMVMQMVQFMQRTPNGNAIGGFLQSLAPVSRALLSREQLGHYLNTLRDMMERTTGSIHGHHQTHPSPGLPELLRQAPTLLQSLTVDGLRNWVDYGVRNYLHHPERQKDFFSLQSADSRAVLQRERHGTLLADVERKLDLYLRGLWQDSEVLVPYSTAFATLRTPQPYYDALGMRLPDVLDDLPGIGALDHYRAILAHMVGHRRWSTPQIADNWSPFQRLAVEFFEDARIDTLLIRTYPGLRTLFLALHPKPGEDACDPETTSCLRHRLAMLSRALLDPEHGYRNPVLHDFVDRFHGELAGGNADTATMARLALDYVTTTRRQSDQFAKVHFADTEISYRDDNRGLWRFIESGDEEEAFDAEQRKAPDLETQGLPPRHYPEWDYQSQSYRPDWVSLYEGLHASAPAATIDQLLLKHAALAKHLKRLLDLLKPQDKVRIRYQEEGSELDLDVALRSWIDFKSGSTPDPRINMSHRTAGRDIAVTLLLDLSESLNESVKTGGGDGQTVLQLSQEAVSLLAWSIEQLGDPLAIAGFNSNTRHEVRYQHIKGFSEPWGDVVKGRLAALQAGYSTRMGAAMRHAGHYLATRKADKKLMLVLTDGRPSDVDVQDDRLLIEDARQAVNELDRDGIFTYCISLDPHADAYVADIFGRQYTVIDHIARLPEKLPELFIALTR
T3 sequence (B7J5E4 entry or part of it W83F): as the sequence (B7J5E4 entry or part of it W83L) above, with L83F counted along it
T3 sequence (B7J5E5 entry or part of it, stated change not applied, further chain): as the sequence (B7J5E5 entry or part of it, stated change not applied, further chain) above

As to `O=C(COP(=O)(O)O)[C@H](O)[C@H](O)COP(=O)(O)O` [RuBP, ribulose-1,5-bisphosphate], the “spectrophotometric coupled rubisco assay” value at AfM [1] was “the activities of both AfM ECM and ER rapidly converged to a low rate”.

Take `O=C(O)[C@@](O)(COP(=O)(O)O)[C@H](O)[C@H](O)COP(=O)(O)O` (mixture of isomers) [CABP, carboxyarabinitol-1,5-bisphosphate]: the “spectrophotometric coupled rubisco assay of ECMC complex” value on AfM [2] is “AfM bound to the transition state analogue CABP (ECMC) formed stable and inactive complexes”; at AfLS, “the form I (AfLS) ER and ECMC complexes were inactive”.

Consider `Nc1ncnc2c1ncn2[C@@H]1O[C@H](COP(=O)(O)OP(=O)(O)OP(=O)(O)O)[C@@H](O)[C@H]1O` [ATP], for which the “coupled ATPase assay (NADH oxidation)” value on Q2O2 [3] was “The W83L and W83F mutants displayed three and twofold increased basal ATPase activities”; on AfQ2, “Both AfQ2 and Q2O2ΔC444 displayed a low ATPase activity”; at Q2O2 [4], “The W83L and W83F mutants displayed three and twofold increased basal ATPase activities”.
